# Test results reported in paper PMC7961380, “A Systematic Study of the In Vitro Pharmacokinetics and Estimated Human In Vivo Clearance of Indole and Indazole-3-Carboxamide Synthetic Cannabinoid Receptor Agonists Detected on the Illicit Drug Market” (Molecules, 2021).
# Like-named read-outs stand apart in the source and are kept apart here.
# What was measured:
# [1] = system: pooled human cryopreserved hepatocytes (pHHeps); assay: Metabolic stability, pooled human cryopreserved hepatocyte incubations; details: for Predicted In Vivo Hepatic Clearance, CLH: from pHHeps CLint, well-stirred model with plasma fu, Q 21 mL min^−1 kg^−1
# [2] = as above; details: human, hepatocytes; for CLint scaled at 0.5 µM: Intrinsic clearance, pHHeps, alternative hepatocyte cell density 99x10^6 hepatocytes per gram liver
# [3] = Short-term plasma stability with and without esterase inhibitors; details: 37 °C; for remaining at 3 h, 5 µM / remaining at 5 h: human, pH 7.4, Parent Compound Remaining (%)
# [4] = Metabolic stability, pooled human liver microsome incubations; details: for Predicted In Vivo Hepatic Clearance, CLH: from pHLM CLint, well-stirred model with plasma fu, Q 21 mL min^−1 kg^−1; for CLint scaled at 0.5 µM / half-life at 0.5 µM: human, microsomes; for CLint scaled at 0.5 µM: pH 7.4, Intrinsic clearance; for half-life at 0.5 µM: pH 7.4, T1/2 (min), pHLM 0.5 mg mL^−1, 0.5 µM, NADPH, 37 °C; for half-life at 0.5 µM / Microsomal Intrinsic Clearance, CLint micr: n ≥ 3 ± SD
# [5] = Plasma protein binding by equilibrium dialysis; assay type: in vitro ADME, human; details: for recovery (total peak area in dialysed samples vs 4 °C samples): PPB thermal stability control, 5 h; for fraction unbound at 5 h, 10 µg mL^−1: human, pooled human plasma, pH 7.4, equilibrium dialysis 5 h
# [6] = pHHeps, 99x10^6 hepatocytes per gram liver
# [7] = T1/2 (min), pHHeps 0.25 million cells mL^−1, 0.5 µM, 37 °C, n ≥ 3 ± SD
# [8] = Esterase Inhibitors, pH 7.4, BNPP and PMSF 500 µM each
# [9] = plasma, No Esterase Inhibitors, pH 7.4, pooled human plasma
# [10] = pHLM, alternative microsomal scaling factor 32 mg microsomal protein per gram liver
# [11] = pHLM, alternative microsomal scaling factor 45 mg microsomal protein per gram liver
# [12] = pHLM, scaling factor 32 mg microsomal protein per gram liver
# [13] = pHLM, scaling factor 45 mg microsomal protein per gram liver
# [14] = 37 °C, 10 µg mL^−1, read-out: PPB (%) (converted)
# [15] = 37 °C, plasma, read-out: Fraction Unbound (fu)
Compound,"Predicted In Vivo Hepatic Clearance, CLH [1]","Hepatic extraction ratio, EH ([1]; from pHHeps incubations)","Hepatic extraction ratio, EH [1, 6]","Predicted in vivo hepatic clearance, CLH [1, 6]","% parent compound remaining, Average ([1]; pHHeps, 3 min)","% parent compound remaining, Average ([1]; pHHeps, 6 min)","% parent compound remaining, Average ([1]; pHHeps, 9 min)","% parent compound remaining, Average ([1]; pHHeps, 15 min)","% parent compound remaining, Average ([1]; pHHeps, 30 min)","% parent compound remaining, Average ([1]; pHHeps, 45 min)","% parent compound remaining, Average ([1]; pHHeps, 60 min)",CLint scaled at 0.5 µM [2],"half-life at 0.5 µM [2, 7]","remaining at 3 h, 5 µM [3, 9]","Predicted In Vivo Hepatic Clearance, CLH [4]","Hepatic extraction ratio, EH ([4]; from pHLM incubations)","CLint scaled at 0.5 µM [4, 10]","CLint scaled at 0.5 µM [4, 11]",half-life at 0.5 µM [4],"% parent compound remaining, Average ([4]; pHLM, 3 min)",further results
"COC(=O)[C@@H](NC(=O)c1nn(CCCCCF)c2ccccc12)C(C)(C)C [(S)-5F-MDMB-PINACA (2), methyl 2-[1-(5-fluoropentyl)-1H-indazole-3-carboxamido]-3,3-dimethylbutanoate]",8.05 ± 1.15 mL/min/kg,0.38 ± 0.055,0.37,7.67 mL/min/kg,77.3%,66.9%,57.5%,48.3%,21.1%,10.6%,5.6%,559 mL/min/kg,13 ± 3.3 min,92.5 ± 10.2%,4.76 ± 0.17 mL/min/kg,0.23 ± 0.008,171 mL/min/kg,240 ± 11 mL/min/kg,6.7 ± 0.31 min,69.9%,"half-life ([1]; pHHep lot HUE50-P): 13.2 ± 3.4 min; half-life at 0.5 µM ([2]; half-life, pHHep lot HUE50-N): 13.3 ± 3.4 min; remaining at 3 h, 5 µM [3, 8]: 97 ± 1.1%; % parent compound remaining, Average ([4]; pHLM, 6 min): 51.7%; % parent compound remaining, Average ([4]; pHLM, 9 min): 39.0%; % parent compound remaining, Average ([4]; pHLM, 15 min): 22.7%; % parent compound remaining, Average ([4]; pHLM, 30 min): 6.1%; Microsomal Intrinsic Clearance, CLint micr ([4]; pHLM): 0.207 ± 0.009 mL min^−1 mg Microsomal Protein^−1; Hepatic extraction ratio, EH [4, 12]: 0.15 ± 0.006; Predicted in vivo hepatic clearance, CLH [4, 12]: 3.18 mL/min/kg; Hepatic extraction ratio, EH [4, 13]: 0.20 ± 0.007; Predicted in vivo hepatic clearance, CLH [4, 13]: 4.22 ± 0.15 mL/min/kg; PPB (%) ([5]; equilibrium dialysis 5 h, 37 °C, 10 µg mL^−1): 97.8 ± 0.19%; Fraction Unbound (fu) ([5]; equilibrium dialysis 5 h, 37 °C, plasma): 0.022 ± 0.0019"
"COC(=O)[C@@H](NC(=O)c1nn(Cc2ccc(F)cc2)c2ccccc12)C(C)C [(S)-AMB-FUBINACA (1), methyl [1-(4-fluorobenzyl)-1H-indazole-3-carbonyl]valinate]",15.52 ± 0.85 mL/min/kg,0.74 ± 0.041,0.72 ± 0.042,15.21 ± 0.88 mL/min/kg,37.0%,18.7%,14.7%,6.2%,1.4%,1.1%,0.8%,2980 mL/min/kg,2.5 ± 0.55 min,96.6 ± 3.8%,15.27 ± 0.14 mL/min/kg,0.73 ± 0.006,1790 mL/min/kg,2520 mL/min/kg,0.6 ± 0.02 min,3.8%,"Parent Compound Remaining (%), Esterase Inhibitors ([3]; 5 h, pH 7.4, BNPP and PMSF 500 µM each): 93.5 ± 0.1%; Parent Compound Remaining (%), No Esterase Inhibitors ([3]; 5 h, pH 7.4, pooled human plasma): 85.9 ± 4.0%; remaining at 3 h, 5 µM [3, 8]: 96.1 ± 1.6%; remaining at 5 h ([3]; Esterase Inhibitors, 5 h, pH 7.4, BNPP and PMSF 500 µM each): 94 ± 0.1%; remaining at 5 h ([3]; plasma, No Esterase Inhibitors, 5 h, pH 7.4, pooled human plasma): 86 ± 4%; % parent compound remaining, Average ([4]; pHLM, 6 min): 0.7%; % parent compound remaining, Average ([4]; pHLM, 9 min): 0.2%; % parent compound remaining, Average ([4]; pHLM, 15 min): 0.1%; % parent compound remaining, Average ([4]; pHLM, 30 min): 0.3%; Microsomal Intrinsic Clearance, CLint micr ([4]; pHLM): 2.182 ± 0.071 mL min^−1 mg Microsomal Protein^−1; Hepatic extraction ratio, EH [4, 12]: 0.62 ± 0.008; Predicted in vivo hepatic clearance, CLH [4, 12]: 12.99 mL/min/kg; Predicted in vivo hepatic clearance, CLH [4, 13]: 14.60 mL/min/kg; recovery (total peak area in dialysed samples vs 4 °C samples) [5]: 77 ± 4.4%; fraction unbound at 5 h, 10 µg mL^−1 [5, 14]: 0.019; fraction unbound at 5 h, 10 µg mL^−1 [5, 15]: 0.019 ± 0.0008"
"C=CCCCn1cc(C(=O)N[C@@H](C(=O)OC)C(C)C)c2ccccc21 [(R)-AMB-4en-PICA (7), methyl 3-methyl-2-[(1-pent-4-enylindole-3-carbonyl)amino] butanoate]",16.79 ± 1.33 mL/min/kg,0.80 ± 0.063,0.79 ± 0.066,16.53 ± 1.39 mL/min/kg,57.7%,46.1%,25.6%,13.7%,4.6%,1.6%,0.6%,1470 mL/min/kg,5.5 ± 2.1 min,91.7 ± 1.9%,11.8 ± 0.97 mL/min/kg,0.56 ± 0.046,286 mL/min/kg,402 mL/min/kg,4.1 ± 0.75 min,56.4%,"remaining at 3 h, 5 µM [3, 8]: 95.5 ± 2.9%; % parent compound remaining, Average ([4]; pHLM, 6 min): 36.2%; % parent compound remaining, Average ([4]; pHLM, 9 min): 22.6%; % parent compound remaining, Average ([4]; pHLM, 15 min): 9.6%; % parent compound remaining, Average ([4]; pHLM, 30 min): 1.6%; Microsomal Intrinsic Clearance, CLint micr ([4]; pHLM): 0.348 ± 0.068 mL min^−1 mg Microsomal Protein^−1; Hepatic extraction ratio, EH [4, 12]: 0.44 ± 0.047; Predicted in vivo hepatic clearance, CLH [4, 12]: 9.28 mL/min/kg; Predicted in vivo hepatic clearance, CLH [4, 13]: 11.05 mL/min/kg; recovery (total peak area in dialysed samples vs 4 °C samples) [5]: 95 ± 2.0%; fraction unbound at 5 h, 10 µg mL^−1 [5, 14]: 0.059; fraction unbound at 5 h, 10 µg mL^−1 [5, 15]: 0.059 ± 0.001"
"C=CCCCn1nc(C(=O)N[C@H](C(=O)OC)C(C)(C)C)c2ccccc21 [(S)-MDMB-4en-PINACA (5), methyl 3,3-dimethyl-2-[1-(pent-4-en-1-yl)-1H-indazole-3-carboxamido] butanoate]",5.11 ± 0.89 mL/min/kg,0.24 ± 0.042,0.23,4.82 mL/min/kg,79.7%,69.0%,56.7%,41.1%,17.1%,7.6%,3.4%,632 mL/min/kg,12 ± 2.6 min,94.8 ± 0.7%,2.66 ± 0.37 mL/min/kg,0.13 ± 0.018,186 mL/min/kg,262 ± 42.3 mL/min/kg,6.3 ± 1 min,72.3%,"remaining at 3 h, 5 µM ([3]; plasma, Esterase Inhibitors, pH 7.4, BNPP and PMSF 500 µM each): 89 ± 3.3%; % parent compound remaining, Average ([4]; pHLM, 6 min): 52.7%; % parent compound remaining, Average ([4]; pHLM, 9 min): 36.7%; % parent compound remaining, Average ([4]; pHLM, 15 min): 18.6%; % parent compound remaining, Average ([4]; pHLM, 30 min): 3.1%; Microsomal Intrinsic Clearance, CLint micr ([4]; pHLM): 0.226 ± 0.037 mL min^−1 mg Microsomal Protein^−1; Hepatic extraction ratio, EH [4, 12]: 0.08 ± 0.012; Predicted in vivo hepatic clearance, CLH [4, 12]: 1.71 mL/min/kg; Hepatic extraction ratio, EH [4, 13]: 0.11 ± 0.016; Predicted in vivo hepatic clearance, CLH [4, 13]: 2.32 ± 0.33 mL/min/kg; fraction unbound at 5 h, 10 µg mL^−1 [5, 14]: 0.01; fraction unbound at 5 h, 10 µg mL^−1 [5, 15]: 0.01 ± 0.0001"
